Legend:
H^+/K^+-ATPase = target: T1, H^+/K^+-ATPase (Sus scrofa, UniProt P19156); test: H+/K+-ATPase enzyme activity inhibition (malachite green, microsomes of porcine gastric mucosa); format: biochemical; conditions: pH 6.5, 10 mmol/L KCl, 37° C. 30 min
T1 construct: Microsomes of porcine gastric mucosal (rich in H^+/K^+-ATPase) obtained by sucrose gradient centrifugation; from tissue; host or cells: porcine gastric mucosa microsomes (self-manufactured, sucrose/ficoll gradient centrifugation)
Protocol: The following in-vitro screening test was used for determining the inhibition effect of the compounds of the present invention on enzyme activity of H^+/K^+-ATPase.
1. microsomes of porcine gastric mucosa (rich in H^+/K^+-ATPase) (self-manufactured)
1. The compounds were prepared into appropriate concentrations of 10000, 1000, 100, 10, 1 and 0.1 nM with 100% DMSO;
2. Buffer solution 1: 50 mmol/L of HEPES-Tris, 5 mmol/L of magnesium chloride, pH of 6.5;
3. Buffer solution 2: 50 mmol/L of HEPES-Tris, 5 mmol/L of magnesium chloride, pH of 6.5, 10 mmol/L of potassium chloride, pH=6.5;
4. ATP: ATP was diluted with the buffer solution 1 to 2 mM;
5. Malachite green solution: 0.12% of malachite green was dissolved in 2.5 moles of a mixture of sulfuric acid, 7.5% ammonium molybdate and 11% Tween 20, the three components were mixed according to a ratio of 100:25:2 during the use.
6. Microsomes of porcine gastric mucosal (rich in H^+/K^+-ATPase) obtained by sucrose gradient centrifugation: a porcine stomach was washed with running water, and immersed into 3 mol/L of concentrated brine for 1-2 min, and then wiped dry; the gastric mucosas were separated, minced, then suspended in a solution of 0.25 mol/L of sucrose, 1 mmol/L of EDTA, and 10 mmol/L of Tris-HCl; homogenization treatment was performed (the ratio was 100 g:330 mL, and 300 mL was further added after the completion of full homogenization), and the resulting homogenate was centrifugalized at 20000G for 30 min to remove the precipitate; the supernatant fluid was taken and centrifugalized at 100000G for 90 min; the precipitate was taken and suspended in 0.25 mol/L of sucrose solution, 0.25 mol/L of sucrose, 7.5% of ficoll were added at the bottom and centrifugalized at 100000G for 5 h. The substances between two liquid surface layers were collected, and then washed with 0.25 mol/L of sucrose solution while being shaken, and the resulting microsomal enzymes were kept at −80° C. for preservation and later use.
10 μL of microsomes of gastric mucosa (H^+/K^+-ATPase) were added to 79 μL of the buffer solution 2, followed by addition of 1 μL of the compound solutions with various concentrations, and then 10 μL of 2 mM ATP were added to start the reaction. It was reacted at 37° C. for 30 min. 30 μL of malachite green solution was added to terminate the reaction, and the reaction solution was kept at room temperature for 20 min, and then an OD value was read at 620 nm on a Victor3 microplate reader, and the inhibition rates of the compounds at various concentrations against H^+/K^+-ATPase were calculated.
Simultaneously, the reaction without addition of potassium chloride was taken as a background, which was subtracted when enzyme activity was calculated.
IC50 values can be calculated from the inhibition rates of the test compounds at various concentrations.

[1] = tested on: gastric acid secretion of rats with pyloric ligation induced ulcer; test: Inhibition of gastric acid secretion of rats with pyloric ligation induced ulcer, histamine-stimulated, 1 h after administration (Test Example 2); format: in vivo, rat; conditions: SD male rats, 2 mg/kg i.g., acid output within 3 h of histamine
Protocol: A rat gastric ulcer model, in which rat gastric acid secretion was promoted by pyloric ligation and histamine hydrochloride, was established in the following experiment, for evaluating the effect of the test compounds on inhibition of gastric acid secretion.
(§1) Sixteen 7-week-old Sprague-Dawley (SD) male rats with a weight of about 250 g were purchased form Sippr-BK (batch number: 2008001621913). The rats were fed by 4 rats/cage, 12/12 h light/dark cyclic regulation was performed, the temperature was constant at 23±1° C., the humidity was 50-60%, and the rats took food and water freely.
The compound of Example 1, which was prepared into a solution/suspension with 0.5% of sodium carboxymethylcellulose (CMC-Na).
(§2) The rats were fasted for about 4 h. 2 mg/kg of the compound of Example 1 or 0.5% of CMC-Na were administrated intragastrically (i. g.) to the rats, and then 1.2 g/kg of urethane was injected intraperitoneally within 1 h. […] After centrifugalizing at 4000 rpm for 5 min, the supernatant fluid was sucked up, and the volume of each sample was measured accurately. […]
(§3) Gastric acid titration: the mean value (mean±S.D.) was calculated in each group by Excel software, t test was performed on the total acid value of gastric acid from treatment groups and model group subjects/animals at each time point after drug administration to judge whether a significant difference existed or not. […]

[2] = tested on: gastric acid secretion of rats with pyloric ligation induced ulcer; test: Inhibition of gastric acid secretion of rats with pyloric ligation induced ulcer, histamine-stimulated, 24 h after administration (Test Example 3); format: in vivo, rat; conditions: SD male rats, acid output within 3 h of histamine
Protocol: A rat gastric ulcer model, in which rat gastric acid secretion was promoted by pyloric ligation and histamine hydrochloride, was established in the following experiment, for evaluating the effect of the test compounds on inhibition of the gastric acid secretion.
as §1, with “Twenty-four (24)” for “Sixteen”, “SD” for “Sprague-Dawley (SD)”
The compound of Example 1 was prepared into a solution/suspension with 0.5% of CMC-Na.
as §2, with “about 24 h.” for “about”, “4 mg/kg and 8” for “4 h. 2”, “(i. g)” for “(i. g.)”, “within 24” for “within 1”, “for 10” for “for 5”
as §3

T1 sequence (P19156 2-1034 limits assumed): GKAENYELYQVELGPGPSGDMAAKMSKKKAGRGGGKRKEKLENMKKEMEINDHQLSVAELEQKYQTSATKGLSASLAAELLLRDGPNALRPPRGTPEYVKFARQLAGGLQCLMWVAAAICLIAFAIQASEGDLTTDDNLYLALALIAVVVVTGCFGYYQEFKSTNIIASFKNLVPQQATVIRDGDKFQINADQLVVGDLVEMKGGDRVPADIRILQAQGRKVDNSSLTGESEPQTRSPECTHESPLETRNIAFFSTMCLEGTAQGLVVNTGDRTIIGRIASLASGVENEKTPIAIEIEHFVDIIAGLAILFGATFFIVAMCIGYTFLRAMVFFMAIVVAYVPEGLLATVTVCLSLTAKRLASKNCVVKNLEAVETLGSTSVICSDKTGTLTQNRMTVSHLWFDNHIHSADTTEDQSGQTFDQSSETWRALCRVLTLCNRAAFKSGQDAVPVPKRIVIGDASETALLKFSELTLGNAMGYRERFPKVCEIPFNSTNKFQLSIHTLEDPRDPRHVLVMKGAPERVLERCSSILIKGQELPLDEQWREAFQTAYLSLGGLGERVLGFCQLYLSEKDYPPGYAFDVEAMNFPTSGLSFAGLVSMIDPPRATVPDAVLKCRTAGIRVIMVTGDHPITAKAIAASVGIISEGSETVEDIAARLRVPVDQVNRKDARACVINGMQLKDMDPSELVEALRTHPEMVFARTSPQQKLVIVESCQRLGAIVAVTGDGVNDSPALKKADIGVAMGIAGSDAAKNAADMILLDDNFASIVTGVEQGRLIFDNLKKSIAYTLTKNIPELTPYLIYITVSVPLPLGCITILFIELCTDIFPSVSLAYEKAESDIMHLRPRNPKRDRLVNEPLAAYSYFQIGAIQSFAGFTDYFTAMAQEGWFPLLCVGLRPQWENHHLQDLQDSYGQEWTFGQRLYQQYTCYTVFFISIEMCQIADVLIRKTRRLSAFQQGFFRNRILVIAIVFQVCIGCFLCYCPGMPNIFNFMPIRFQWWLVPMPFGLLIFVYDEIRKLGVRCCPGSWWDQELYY
T1 sequence (P18434 whole entry partner): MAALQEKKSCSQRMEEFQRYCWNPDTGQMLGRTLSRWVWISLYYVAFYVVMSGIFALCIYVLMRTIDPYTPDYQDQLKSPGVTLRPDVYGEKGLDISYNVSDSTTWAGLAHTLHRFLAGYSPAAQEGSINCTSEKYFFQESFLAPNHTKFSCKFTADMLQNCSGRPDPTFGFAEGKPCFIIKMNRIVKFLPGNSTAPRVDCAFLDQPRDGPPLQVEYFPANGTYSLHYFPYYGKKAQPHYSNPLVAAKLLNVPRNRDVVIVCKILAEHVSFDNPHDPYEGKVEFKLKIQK

SMILES | IC50 (H^+/K^+-ATPase) [nM] | acid inhibition rate at 1 h [1] [%] | acid inhibition rate at 24 h ([2]; 4 mg/kg i.g.) [%] | acid inhibition rate at 24 h ([2]; 8 mg/kg i.g.) [%]
CNCc1cc(-c2ccccc2F)n(S(=O)(=O)c2cccc(OCC(=O)NCCCO)c2)c1 [Example 11] | 61 |  |  | 
CNCc1cc(-c2ccccc2F)n(S(=O)(=O)c2cccc(OCC3(C(=O)NC)CC3)c2)c1 [Example 5, 1-((3-((2-(2-fluorophenyl)-4-((methylamino)methyl)-1H-pyrrol-1-yl)sulfonyl)phenoxy)methyl)-N-methylcyclopropylcarboxamide] | 81 |  |  | 
CNCc1cc(-c2ccccc2F)n(S(=O)(=O)c2ccc(OCC3(C(=O)NC)CC3)cc2)c1 [Example 6, 1-((4-((2-(2-fluorophenyl)-4-((methylamino)methyl)-1H-pyrrol-1-yl)sulfonyl)phenoxy)methyl)-N-methylcyclopropylcarboxamide] | 106 |  |  | 
CNCc1cc(-c2ccccc2F)n(S(=O)(=O)c2ccc(OCC(=O)NC)cc2)c1 [Example 4, 2-(4-((2-(2-fluorophenyl)-4-((methylamino)methyl)-1H-pyrrol-1-yl)sulfonyl)phenoxy)-N-methylacetamide] | 63 |  |  | 
CNCc1cc(-c2ccccc2F)n(S(=O)(=O)c2cccc(OCC(=O)NCCO)c2)c1 [Example 10, 2-(3-((2-(2-fluorophenyl)-4-((methylamino)methyl)-1H-pyrrol-1-yl)sulfonyl)phenoxy)-N-(2-hydroxyethyl)acetamide] | 49 |  |  | 
CNCc1cc(C2=CCCCC2)n(S(=O)(=O)c2cccc(OCC(=O)NC3CC3)c2)c1 [Example 7, 2-(3-((2-(cyclohex-1-en-1-yl)-4-((methylamino)methyl)-1H-pyrrol-1-yl)sulfonyl)phenoxy)-N-cyclopropylacetamide] | 95 |  |  | 
CNCc1cc(-c2ccccc2F)n(S(=O)(=O)c2cccc(OCC(=O)NC)c2)c1 [Example 1, 2-(3-((2-(2-fluorophenyl)-4-((methylamino)methyl)-1H-pyrrol-1-yl)sulfonyl)phenoxy)-N-methylacetamide] | 21 | 89.3 | 89.6 | 99.4
